The results in this text go back to paper PMC11194663, “Synthesis and biological research of new imidazolone-sulphonamide-pyrimidine hybrids as potential EGFR-TK inhibitors and apoptosis-inducing agents” (RSC Advances, 2024).

Structures are written as SMILES.

Data set [1] deals with breast MCF-7 cancerous cell line. Kind of data set: MTT cytotoxicity assay. As to conditions: Homo sapiens, MCF7, 24 h, read-out: IC50 (μM) MCF-7.
Description: The MTT colorimetric method, a frequently utilized assay for detecting the in vitro cytotoxic activities of drugs, was chosen to evaluate the cytotoxic action of the imidazolone-sulphonamide-pyrimidine hybrids 5a–l and 6a,b in hands against breast MCF-7 adenocarcinoma cell line, and they were compared to Dox as the positive control.
under 5% CO2. After incubation, the cells were treated with different concentrations of the test imidazolone hybrids 5a-l and 6a,b and incubated for 24 h, then 20 l of MTT
The target in a further data set is T1, EGFR-TK (Homo sapiens, UniProt P00533).
T1 construct: purchased BPS Bioscience 40321
T1 sequence (P00533 25-1210): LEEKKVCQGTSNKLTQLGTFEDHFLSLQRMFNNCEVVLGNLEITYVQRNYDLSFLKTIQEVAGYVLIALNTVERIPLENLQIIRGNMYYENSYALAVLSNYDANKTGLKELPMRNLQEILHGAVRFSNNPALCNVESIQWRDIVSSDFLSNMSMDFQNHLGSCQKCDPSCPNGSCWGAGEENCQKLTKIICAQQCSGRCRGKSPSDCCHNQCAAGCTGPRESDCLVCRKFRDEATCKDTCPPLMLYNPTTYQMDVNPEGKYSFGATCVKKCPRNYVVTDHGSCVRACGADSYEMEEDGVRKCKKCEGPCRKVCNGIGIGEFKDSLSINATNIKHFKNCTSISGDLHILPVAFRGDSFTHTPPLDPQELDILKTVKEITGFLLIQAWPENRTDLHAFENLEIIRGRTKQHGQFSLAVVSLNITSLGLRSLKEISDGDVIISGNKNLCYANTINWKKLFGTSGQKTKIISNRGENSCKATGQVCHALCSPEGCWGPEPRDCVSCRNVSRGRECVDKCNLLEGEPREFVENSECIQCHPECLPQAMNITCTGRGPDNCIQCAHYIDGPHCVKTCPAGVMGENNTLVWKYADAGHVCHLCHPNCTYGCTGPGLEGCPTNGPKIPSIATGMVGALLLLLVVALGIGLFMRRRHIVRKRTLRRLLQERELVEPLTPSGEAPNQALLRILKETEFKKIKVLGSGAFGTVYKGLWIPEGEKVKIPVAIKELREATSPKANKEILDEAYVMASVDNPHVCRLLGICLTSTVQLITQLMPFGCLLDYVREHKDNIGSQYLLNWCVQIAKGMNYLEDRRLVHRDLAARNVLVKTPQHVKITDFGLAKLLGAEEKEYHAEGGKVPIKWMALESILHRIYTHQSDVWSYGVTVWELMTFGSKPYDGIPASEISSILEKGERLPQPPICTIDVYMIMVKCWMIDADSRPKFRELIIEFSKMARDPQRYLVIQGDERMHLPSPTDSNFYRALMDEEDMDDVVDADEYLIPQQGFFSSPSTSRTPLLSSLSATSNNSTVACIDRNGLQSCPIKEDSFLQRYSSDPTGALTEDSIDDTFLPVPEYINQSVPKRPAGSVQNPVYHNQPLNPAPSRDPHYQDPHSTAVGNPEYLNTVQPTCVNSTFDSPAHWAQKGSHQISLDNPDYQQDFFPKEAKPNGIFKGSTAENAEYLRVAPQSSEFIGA
In words: EGFR kinase inhibitory assay (BPS Bioscience EGFR Kinase Assay Kit). As to conditions: mean of three replicates; read-out: IC50 on EGFR enzyme. In kind it is biochemical. The protocol:
S4.2.1. Cytotoxic activity evaluation […]
adenocarcinoma (MCF-7) cell line. Cell viability assay was assessed using MTT assay […]
under 5% CO2. After incubation, the cells were treated with different concentrations of the test imidazolone hybrids 5a-l and 6a,b and incubated for 24 h, then 20 µl of MTT […]
(DMSO) in volume of 100 µl was added to each well to dissolve the purple formazan that had formed. The color intensity of the formazan product, which represents the […]
USA) at 570 nm absorbance. The experimental conditions were carried out with at least three replicates, and the experiments were repeated at least three times.
S4.2.2. EGFR kinase Assay […]
activity according to manufacturer’s instructions using # BPS Bioscience EGFR

The subject of data set [2] is MCF-7 cells. In words: Cell cycle analysis by flow cytometry (PI). In kind it is cell-based. Conditions: 1.05 μM (IC50), 48 h. The procedure:
The impact of the best potent hybrid molecule on the cellular cycle distribution was further evaluated on the MCF-7 cell line.
S4.2.3. Cell cycle analysis of compound 6b
Cell cycle analysis in MCF-7 cells was investigated using fluorescent Annexin V-FITC/ PI detection kit (BioVision EZCellTM Cell Cycle Analysis Kit Catalog #K920) by flow cytometry assay. MCF-7 cells at a density of 2 × 10^5 per well were harvested and washed twice in PBS. After that, the cells were incubated at 37 °C and 5% CO2. The medium was incubated with the tested compound 6b at the IC50 (µM) for 48 h, washed twice in PBS, fixed with 70% ethanol, rinsed again with PBS. Afterward, medium was stained with DNA fluorochrome PI for 15 min at 37 °C. The samples were immediately analyzed using Facs Calibur flow cytometer (Becton and Dickinson, Heidelberg, […]
S4.2.4. Apoptosis assay for compound 6b
(1 picture or pasted object on this page, not shown here)

Data set [3] concerns MCF-7 cells. Kind of data set: Annexin V-FITC/PI apoptosis assay by flow cytometry. Conditions: IC50 concentration, 48 h. It is filed as cell-based. The text has this:
Apoptosis, a form of programmed cellular death, is a widespread phenomenon, occurring in processes such as morphogenesis, growth and development as well as normal turnover in adult tissue.[35] Most cells are programmed to die if survival signals are not received regularly from their environment.[36] It can be initiated by endogenous tissue-specific agents such as cytokines or exogenous cell-damaging agents such as chemicals.[37] It is evidenced from the literature that exposure to EGFR-TK inhibitors leads to cellular apoptosis.[38] Thus, the effect of examined 4-(furan-2-ylmethylene)imidazolone-sulphonamide-pyrimidine hybrid 6b on the apoptosis of the MCF-7 cells was assessed utilizing Annexin V-FITC/PI double labeling followed by flow cytometry (Fig. 4). […] 4-(furan-2-ylmethylene)imidazolone-sulphonamide-pyrimidine hybrid 6b induced 46.1% apoptosis in the MCF-7 cancer cells. Thus, it is evident that this compound had substantial apoptosis-inducing action against the MCF-7 breast cancerous cell line.
Apoptosis in MCF-7 cells was investigated using fluorescent Annexin V-FITC/ PI detection kit (BioVision Annexin V-FITC Apoptosis Detection Kit, Catalog #: K101) by flow cytometry assay. MCF-7 cells at a density of 2 × 10^5 per well were treated with compound 6b at the IC50 (µM) for 48 h, then the cells were harvested and stained with Annexin V-FITC/ PI dye for 15 min in the dark at 37 °C. The samples were immediately analyzed using FACS Calibur flow cytometer (Becton and Dickinson, […]

In the next data set the test system is Bcl-2. Kind of data set: qRT-PCR expression of pro-survival Bcl-2 in MCF-7 cells. As to conditions: IC50 concentration, 48 h, MCF-7, decline. In kind it is cell-based. The source says:
(§1) The Bcl-2 family members are essential in determining whether a cell will survive or perish since they reside upstream of the irreversible cellular damage.[40] Two groups of the Bcl-2 family proteins are distinguished by pro-survival (e.g. Bcl-2) or pro-apoptotic (Bax) activity.[41] The pro-apoptotic factors promote cellular death. When Bcl-2-associated x-protein (Bax) homodimerizes it enhances apoptosis. The anti-apoptotic effect of Bcl-2 may be due to its ability to inhibit Bax homodimerization.[42,43] […] It is noteworthy, that the level of pro-survival Bcl-2 protein declined by 0.28-fold compared to the control untreated cells. […] These findings support that 4-(furan-2-ylmethylene)imidazolone-sulphonamide-pyrimidine hybrid 6b induces apoptosis by regulating the expression of Bcl-2 family proteins.
(§2) Fig. 5 Roles of Bcl-2 family protein in apoptosis induced by 4-(furan-2-ylmethylene)imidazolone-sulphonamide-pyrimidine hybrid 6b. (A) Pro-survival Bcl-2 protein; (B) pro-apoptotic Bax protein. Cells underwent treatment with an IC50 concentration of imidazolone hybrids 6b for 48 h and the expression of apoptosis-related proteins was examined by qRT-PCR assay.

Another data set deals with Bax. Kind of data set: qRT-PCR expression of pro-apoptotic Bax in MCF-7 cells. In kind it is cell-based. Conditions: IC50 concentration, 48 h, MCF-7, increase.
Description: as §1, §2

`O=C1/C(=C/c2ccc(Br)cc2)N=C(c2ccccc2)N1c1ccc(S(=O)(=O)Nc2ncccn2)cc1` [5a, (Z)-4-(4-(4-bromobenzylidene)-5-oxo-2-phenyl-4,5-dihydro-1H-imidazole-1-yl)-N-(pyrimidin-2-yl)benzenesulfonamide]: the melting point lay in the range of 290 to 292 °C. For the same molecule, the IC50 in data set [1] turned out to be 14.1 ± 0.68 µM.
The molecule `O=C1/C(=C/c2ccccc2O)N=C(c2ccccc2)N1c1ccc(S(=O)(=O)Nc2ncccn2)cc1` [5b, (Z)-4-(4-(2-hydroxybenzylidene)-5-oxo-2-phenyl-4,5-dihydro-1H-imidazole-1-yl)-N-(pyrimidin-2-yl)benzenesulfonamide] returned a melting point of 188 to 190 °C. Further, in data set [1], the IC50 is 31.4 ± 1.64 µM.
As for `Cc1ccc(/C=C2\N=C(c3ccccc3)N(c3ccc(S(=O)(=O)Nc4ncccn4)cc3)C2=O)cc1` [5c, (Z)-4-(4-(4-methylbenzylidene)-5-oxo-2-phenyl-4,5-dihydro-1H-imidazole-1-yl)-N-(pyrimidin-2-yl)benzenesulfonamide], the melting point lay within 277 to 279 °C. Also, in data set [1], the IC50 turned out to be 43.9 ± 2.24 µM.
Molecule `CC(=O)Oc1c(Br)cc(/C=C2\N=C(c3ccccc3)N(c3ccc(S(=O)(=O)Nc4ncccn4)cc3)C2=O)cc1Br` [5d, (Z)-2,6-dibromo-4-((5-oxo-2-phenyl-1-(4-(N-pyrimidin-2-ylsulfamoyl)phenyl)-1H-imidazole-4(5H)-ylidene)methyl)phenyl acetate] showed a melting point of 243 to 245 °C. The IC50 in data set [1] came to 29.4 ± 1.64 µM.
For `COc1ccc(/C=C2\N=C(c3ccccc3)N(c3ccc(S(=O)(=O)Nc4ncccn4)cc3)C2=O)c(OC)c1OC` [5e, (Z)-4-(5-oxo-2-phenyl-4-(2,3,4-trimethoxybenzylidene)-4,5-dihydro-1H-imidazole-1-yl)-N-(pyrimidin-2-yl)benzenesulfonamide] the same measures were 210 to 212 °C and 37.2 ± 1.98 µM.
`COc1ccc(C2=N/C(=C\c3ccccc3)C(=O)N2c2ccc(S(=O)(=O)Nc3ncccn3)cc2)cc1` [5f, (Z)-4-(4-benzylidene-2-(4-methoxyphenyl)-5-oxo-4,5-dihydro-1H-imidazole-1-yl)-N-(pyrimidin-2-yl)benzenesulfonamide]: the melting point was 258 to 260 °C. The IC50 in data set [1] is 85.2 ± 4.72 µM.
In the case of `COc1ccc(C2=N/C(=C\c3ccc(F)cc3)C(=O)N2c2ccc(S(=O)(=O)Nc3ncccn3)cc2)cc1` [5g, (Z)-4-(4-(4-fluorobenzylidene)-2-(4-methoxyphenyl)-5-oxo-4,5-dihydro-1H-imidazole-1-yl)-N-(pyrimidin-2-yl)benzenesulfonamide], the melting point lay within 257 to 259 °C. Further, in data set [1], the 50% inhibitory concentration (IC50) was 4.57 ± 0.09 µM.
`COc1ccc(C2=N/C(=C\c3ccc(Cl)cc3)C(=O)N2c2ccc(S(=O)(=O)Nc3ncccn3)cc2)cc1` [5h, (Z)-4-(4-(4-chlorobenzylidene)-2-(4-methoxyphenyl)-5-oxo-4,5-dihydro-1H-imidazole-1-yl)-N-(pyrimidin-2-yl)benzenesulfonamide] registered a melting point of 262 to 264 °C. Moreover, the IC50 at EGFR-TK is 160 nM. Besides, in data set [1], the half-maximal inhibitory concentration (IC50) is 3.71 ± 0.2 µM.
As for `COc1ccc(C2=N/C(=C\c3ccc(Br)cc3)C(=O)N2c2ccc(S(=O)(=O)Nc3ncccn3)cc2)cc1` [5i, (Z)-4-(4-(4-bromobenzylidene)-2-(4-methoxyphenyl)-5-oxo-4,5-dihydro-1H-imidazole-1-yl)-N-(pyrimidin-2-yl)benzenesulfonamide], the melting point was 284 to 286 °C. Further, the IC50 in data set [1] worked out at 9.98 ± 0.61 µM.
For `COc1ccc(C2=N/C(=C\c3ccc([N+](=O)[O-])cc3)C(=O)N2c2ccc(S(=O)(=O)Nc3ncccn3)cc2)cc1` [5j, (Z)-4-(2-(4-methoxyphenyl)-4-(4-nitrobenzylidene)-5-oxo-4,5-dihydro-1H-imidazole-1-yl)-N-(pyrimidin-2-yl)benzenesulfonamide], the melting point is over 300 °C. At EGFR-TK, the IC50 amounted to 210 nM. Moreover, the 50% inhibitory concentration (IC50) in data set [1] came out at 3.14 ± 0.16 µM.
For the molecule `COc1ccc(C2=N/C(=C\c3cc(Br)c(OC(C)=O)c(Br)c3)C(=O)N2c2ccc(S(=O)(=O)Nc3ncccn3)cc2)cc1` [5k, (Z)-2,6-dibromo-4-((2-(4-methoxyphenyl)-5-oxo-1-(4-(N-pyrimidin-2-ylsulfamoyl)phenyl)-1H-imidazole-4(5H)-ylidene)methyl)phenyl acetate], the melting point was 239 to 241 °C. In addition, in data set [1], the IC50 turned out to be 14.5 ± 0.65 µM.
For `COc1ccc(C2=N/C(=C\c3cc(OC)c(OC)c(OC)c3)C(=O)N2c2ccc(S(=O)(=O)Nc3ncccn3)cc2)cc1` [5l, (Z)-4-(2-(4-methoxyphenyl)-5-oxo-4-(3,4,5-trimethoxybenzylidene)-4,5-dihydro-1H-imidazole-1-yl)-N-(pyrimidin-2-yl)benzenesulfonamide], the melting point is 247 to 249 °C. The IC50 in data set [1] was found to be 25.8 ± 1.24 µM.
For `O=C1/C(=C/c2ccco2)N=C(c2ccccc2)N1c1ccc(S(=O)(=O)Nc2ncccn2)cc1` [6a, (Z)-4-(4-(furan-2-ylmethylene)-5-oxo-2-phenyl-4,5-dihydro-1H-imidazole-1-yl)-N-(pyrimidin-2-yl)benzenesulfonamide] the same measures were 291 to 293 °C and 5.09 ± 0.31 µM.
For the molecule `COc1ccc(C2=N/C(=C\c3ccco3)C(=O)N2c2ccc(S(=O)(=O)Nc3ncccn3)cc2)cc1` [6b, (Z)-4-(4-(furan-2-ylmethylene)-2-(4-methoxyphenyl)-5-oxo-4,5-dihydro-1H-imidazole-1-yl)-N-(pyrimidin-2-yl)benzenesulfonamide], the IC50 on EGFR-TK amounted to 90 nM; in data set [1] it was 1.05 ± 0.04 µM. Besides, the “MCF-7 cells in G2/M phase” value with MCF-7 cells [2] (control 13.7%) stood at 10.8%. Further, the “MCF-7 cells in S phase” value in the data set with MCF-7 cells [2] (control 35.1%) was 24.3%. Further, the “MCF-7 cells in G1 phase” value in the data set on MCF-7 cells [2] (control 51.2%) worked out at 64.9%. Besides, in the data set with MCF-7 cells [3], the “apoptosis induced in MCF-7 cells (total)” value turned out to be 46.1%. Moreover, the “apoptotic cells in the late stage (upper right quadrant)” value in the data set with MCF-7 cells [3] (control 0.2%) is 23.4%. For the same molecule, the “apoptotic cells in the early stage (lower right quadrant)” value in the data set with MCF-7 cells [3] (control 0.6%) came out at 22.7%. Further, in the data set with Bcl-2, the “Bcl-2 expression level relative to untreated control” value stood at 0.28 fold. Moreover, the “Bax expression level relative to untreated control” value in the data set on Bax is reported as 4.54 fold.
On to `COc1cccc2c1C(=O)c1c(O)c3c(c(O)c1C2=O)C[C@@](O)(C(=O)CO)C[C@@H]3O[C@H]1C[C@H](N)[C@H](O)[C@H](C)O1` [Dox, doxorubicin, reference compound], for which the IC50 in data set [1] was found to be 1.91 ± 0.07 µM.
